Data set [1] deals with novel coronavirus (SARS-CoV-2). Nature of the data set: microbe, parasite or virus in culture. Particulars: for EC50: Severe acute respiratory syndrome coronavirus 2, Vero, read-out: EC50 for inhibiting the novel coronavirus. The format is cell-based.
For the next data set, the system named is Vero cells. The settings on record: for CC10: African green monkey.
Data set [2] has as its system HCoV 229E.
A further data set deals with novel coronavirus. Nature of the data set: Inhibitory effect of PI0101 on the novel coronavirus, 96-well plate, 76 hours. It counts as cell-based, SARS-CoV-2. Particulars: Severe acute respiratory syndrome coronavirus 2, novel coronavirus 100 TCID50/well.
Data set [3] in a line: in vitro.
The nature of data set [4]: in vitro. Particulars: human.
The next data set concerns the target PI4KIIIα (Homo sapiens, UniProt P42356). The settings on record: read-out: IC50 of inhibitory effect on PI4KIIIα; cited from earlier work.
Data set [5] concerns HCoV 229E. Nature of the data set: microbe, parasite or virus in culture. The settings on record: unidentified human coronavirus.
Another data set relates to MRC5 cells. Particulars: human.
Data set [6] is described as follows: in vitro. Particulars: African green monkey.

Like-named read-outs stand apart in the source and are kept apart here.

Chain of PI4KIIIα (P42356 whole entry): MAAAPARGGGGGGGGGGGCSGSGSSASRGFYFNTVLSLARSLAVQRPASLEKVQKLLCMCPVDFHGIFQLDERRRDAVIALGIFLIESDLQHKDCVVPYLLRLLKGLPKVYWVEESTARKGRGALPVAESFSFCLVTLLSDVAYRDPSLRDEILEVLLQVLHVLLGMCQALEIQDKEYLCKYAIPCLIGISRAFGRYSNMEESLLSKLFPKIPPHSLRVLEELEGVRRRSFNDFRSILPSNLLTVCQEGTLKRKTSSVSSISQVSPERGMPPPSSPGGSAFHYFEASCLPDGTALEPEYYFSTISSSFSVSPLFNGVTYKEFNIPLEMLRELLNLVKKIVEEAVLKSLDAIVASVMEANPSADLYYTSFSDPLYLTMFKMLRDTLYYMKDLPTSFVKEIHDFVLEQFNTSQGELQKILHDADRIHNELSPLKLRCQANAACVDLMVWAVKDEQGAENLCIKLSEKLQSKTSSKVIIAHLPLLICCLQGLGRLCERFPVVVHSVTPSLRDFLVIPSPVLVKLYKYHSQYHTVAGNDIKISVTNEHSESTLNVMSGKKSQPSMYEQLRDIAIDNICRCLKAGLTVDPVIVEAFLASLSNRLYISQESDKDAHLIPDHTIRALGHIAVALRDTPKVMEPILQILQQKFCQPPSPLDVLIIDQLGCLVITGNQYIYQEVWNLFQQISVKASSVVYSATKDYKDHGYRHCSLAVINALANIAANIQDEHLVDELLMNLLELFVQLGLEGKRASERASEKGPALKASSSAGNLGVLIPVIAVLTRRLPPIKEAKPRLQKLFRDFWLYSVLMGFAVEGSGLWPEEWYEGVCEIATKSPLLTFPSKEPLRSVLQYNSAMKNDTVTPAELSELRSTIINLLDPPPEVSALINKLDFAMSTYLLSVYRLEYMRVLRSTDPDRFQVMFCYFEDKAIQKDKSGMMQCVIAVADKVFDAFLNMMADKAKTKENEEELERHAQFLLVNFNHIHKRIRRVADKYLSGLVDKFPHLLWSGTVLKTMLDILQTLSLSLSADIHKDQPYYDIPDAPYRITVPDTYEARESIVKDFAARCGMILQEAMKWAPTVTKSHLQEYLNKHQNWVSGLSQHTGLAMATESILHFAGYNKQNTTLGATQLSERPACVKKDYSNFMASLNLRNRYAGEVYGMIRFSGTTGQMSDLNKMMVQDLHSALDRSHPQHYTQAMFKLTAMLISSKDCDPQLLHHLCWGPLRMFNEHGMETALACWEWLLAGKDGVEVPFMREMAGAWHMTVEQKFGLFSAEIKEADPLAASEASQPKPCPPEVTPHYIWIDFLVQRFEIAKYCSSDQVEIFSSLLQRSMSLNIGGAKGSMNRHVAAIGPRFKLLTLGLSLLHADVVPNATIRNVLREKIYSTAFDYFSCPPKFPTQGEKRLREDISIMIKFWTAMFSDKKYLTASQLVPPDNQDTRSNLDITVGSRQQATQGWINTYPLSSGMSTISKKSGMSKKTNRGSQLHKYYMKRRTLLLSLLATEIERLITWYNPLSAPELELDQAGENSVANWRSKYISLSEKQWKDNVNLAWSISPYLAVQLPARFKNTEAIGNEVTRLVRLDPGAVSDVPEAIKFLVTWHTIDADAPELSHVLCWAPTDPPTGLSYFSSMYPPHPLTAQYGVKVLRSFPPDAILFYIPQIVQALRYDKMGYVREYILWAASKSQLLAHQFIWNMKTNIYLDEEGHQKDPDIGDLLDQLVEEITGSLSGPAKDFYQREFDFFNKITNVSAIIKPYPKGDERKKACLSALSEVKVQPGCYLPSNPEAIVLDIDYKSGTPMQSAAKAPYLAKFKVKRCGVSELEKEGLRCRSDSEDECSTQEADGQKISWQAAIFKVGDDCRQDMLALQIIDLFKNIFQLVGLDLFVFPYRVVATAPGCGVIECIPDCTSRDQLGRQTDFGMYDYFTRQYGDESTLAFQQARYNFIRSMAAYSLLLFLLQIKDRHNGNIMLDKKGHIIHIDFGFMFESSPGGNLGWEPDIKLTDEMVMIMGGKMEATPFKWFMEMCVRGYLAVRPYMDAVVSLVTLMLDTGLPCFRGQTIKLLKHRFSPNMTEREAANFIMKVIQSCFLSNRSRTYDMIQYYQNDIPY

Turning to `CCN(CC)CCCC(C)Nc1ccnc2cc(Cl)ccc12` (stereo not drawn) [Chloroquine phosphate], the EC50 in data set [1] was determined as 50 µM. This compound returned a CC10 in the data set on Vero cells of 120 µM.
As for `COc1ccc2c(O[C@@H]3C[C@H]4C(=O)N[C@]5(C(=O)NS(=O)(=O)C6CC6)C[C@H]5/C=C\CCCCN(C)C(=O)[C@@H]4C3)cc(-c3nc(C(C)C)cs3)nc2c1C` [PI0101, Simeprevir], in the data set on HCoV 229E [2] (the second test), the “SI (CC50/EC50)” value is recorded as 2.48. For the same compound, the EC50 was found to be 3.85 µM in the data set on novel coronavirus and 3.41 µM in the data set on HCoV 229E [5] (MRC5, 72 h). The CC50 is greater than 10 µM in “in vitro [3]” and 8.46 µM in the data set “in vitro [4]”. In addition, on PI4KIIIα, the IC50 is 0.2 µM.
For the compound `CC(=O)Nc1nc(C)c(-c2ccc(Cl)c(S(=O)(=O)NCCO)c2)s1` [PIK-93], the “inhibitory effect on the novel coronavirus” value in data set [1] is reported as “no significant inhibitory effect”. The “toxic effect on Vero cells” value with Vero cells is on record as “no significant toxic effect”.
Turning to `CCC(CC)COC(=O)[C@H](C)N[P@](=O)(OC[C@H]1O[C@@](C#N)(c2ccc3c(N)ncnn23)[C@H](O)[C@@H]1O)Oc1ccccc1` [Remdesivir], the EC50 in [1] was determined as 0.52 µM; in the data set with HCoV 229E [5] (MRC5) it was 0.0264 µM. Further, the “SI (CC50/EC50)” value is on record as greater than 3785.01 in the data set with HCoV 229E [2] (the first test) and 2338.60 with HCoV 229E [2] (the second test). The compound also had a CC10 with Vero cells of 55 µM. Further, the CC50 came to 30.7 µM in the data set on MRC5 cells and 208 µM in “in vitro [6]”. This compound also gave a viability in “in vitro [6]” greater than 90%.
On to `O=[As]c1ccc(NC(=O)CCc2ccccc2)cc1` (stereo not drawn) [YL-05], for which the CC50 in “in vitro [4]” was greater than 0.8 µM. In the data set with HCoV 229E [5] (MRC5, 72 h), this compound displayed an EC50 greater than 0.2 µM.
Turning to `O=[As]c1ccc(NS(=O)(=O)c2ccc(F)cc2)cc1` (stereo not drawn) [YL-09], the CC50 with MRC5 cells was 13.9 µM.
Regarding `COc1ccc(S(=O)(=O)Nc2ccc([As]=O)cc2)cc1` (stereo not drawn) [YL-10], in the data set with HCoV 229E [2], the EC50 was found to be 3.95 µM and the “SI (CC50/EC50)” value is recorded as 3.55. The same compound registered a CC50 in the data set on MRC5 cells of 14 µM.
For `O=[As]c1ccc(NS(=O)(=O)c2ccc(C(F)(F)F)cc2)cc1` (stereo not drawn) [YL-11], in that order: 2.1 µM, 3.03 and 6.37 µM.

The values are drawn from US20250152599A1 (priority 2020, published 2025).
